In test [1] the test system is feeder cells. Put plainly: Feeder layer morphology in ES cell cultures. The format is cell-based. The conditions noted are these: AAP 50 mg/L, independent of LIF. The text has this: One aspect of the supplement that was sub-optimal related to the morphology of the feeder layer in ES cell cultures maintained in the same culture vessel for more than three days. Generally, ES cells are passaged every two to three days. Typically, during selection of antibiotic-resistant ES cells, cultures are maintained without passaging for ten or more days. […] The detached cells were seen floating in the growth medium.
In order to improve the formulation, the addition of L-ascorbic acid-2-phosphate to the formulation was evaluated. In an evaluation assay (as in Example 1), the medium was supplemented with the serum-free supplement (to a fmal concentration of 15%), either with or without L-ascorbic acid-2-phosphate (50 mg/L final concentration), and 10 ng/mL LIF (final concentration).
The numbers within parentheses indicate what percentage of total ES cell colonies that the colonies with the indicated degree of differentiation represented. In Table 4, “good” feeder cell morphology reflects a more fibroblast-like character and smooth borders, rather than a spindly, ragged-looking character.

Test [2] has as its system D3 ES cells. Put plainly: Media formulation evaluation assay: ES cell colony morphology, alkaline phosphatase staining and plating efficiency. The format is cell-based, mouse. The following applies: for general plating efficiency and number of undifferentiated ES colonies with or without the component: component added to serum-free formulation (15% in DMEM): 15 μg/L ferric citrate, 0.3 μg/L glycl-histidyl-lysine, 300 μg/L ethanolamine. Here is the method: ES D3 ES cells were used (Doetschman, T. C. et al., J. Embryol. Exp. Morph. 87:27-45 (1985)). Unless otherwise specified, D3 cells at passage 15 were used. Trypsin-EDTA (0.25%, 1 mM) was used to remove cells from plates after rinsing the cell layer with phosphate buffered saline (PBS). Cells were cultured in a humidified 37° C., 10% CO2 incubator.
The protocol for a media formulation evaluation assay was as follows. The source of ES cells for the experiments was a sub-confluent dish of ES cells maintained on a feeder layer in ES cell medium with LIF. Feeder layers for experimental conditions were established in 6 well plates (NUNC) by seeding 3-5×10^4 feeder cell/cm^2 and allowing the cells to attach. ES cells were trypsinized to form a cell suspension. Trypsin activity was quenched with serum-supplemented medium, and cells were pelleted by centrifugation at 500× g. The medium was removed and the ES cells were resuspended in DMEM containing 2 mM L-glutamine, 50 U/mL penicillin, 50 ug/mL streptomycin, 100 uM NEAA, and 100 uM 2-mercaptoethanol (final concentrations).
ES cells were then mixed with respective test media (described infra) at a concentration of […]. Feeder cell media was then removed from the feeder plates, and the feeder layers were washed once with 2 mL of DMEM (that was not supplemented with serum or any other additives). 2.5 mL of test medium and ES cells (225/well) were added to each well of feeder cells. Test conditions were assayed in triplicate (3 wells/test condition). The cells were incubated for 7 days while observations were made regarding ES cell growth parameters. Incubation conditions were 37° C., 10% CO2 in air, and humidified atmosphere.
At the end of the 7 day culture period, observations were made and then ES cells were harvested, fixed and assayed for the presence of alkaline phosphatase by using a histochemical assay (Sigma diagnostic kit 86-R, Sigma, St. Louis, Mo.). Cells were fixed and assayed according to the manufacturer's directions. In this assay, cells which express alkaline phosphatase stain dark pink or red. ES cell colonies were rated in terms of morphology and strength of alkaline phosphatase staining according to the following parameters. Class I colonies are round, stain dark pink, and have the desired, undifferentiated colony morphology characterized by a well-defined colony border. Class II colonies are those that have begun to differentiate, are stained at least 60% pink, and have a more flattened appearance, with a poorly defined border. […] Plating efficiency was determined by dividing the total number of colonies obtained by the input number of ES cells (225/well).

Experimental findings from patent publication US20020076747A1, “Method for expanding embryonic stem cells in serum-free culture” (priority 1997, published 2002) are described below.

As for `O=C1O[C@H]([C@@H](O)CO)C(O)=C1OP(=O)(O)O` [L-ascorbic acid-2-phosphate], the “appearance of the feeder layer” value in test [1] is recorded as “improved”. Moreover, the “effect on plating efficiency” value in test [2] (factor alone) is listed as “little effect”. In addition, in test [2] (in the absence of LIF), the colony size entry is on record as “much improved”, the “percent of class I colonies” value is “increased” and the “percent of class III colonies” value is given as “decreased”. Further, in test [2] (with LIF in the culture media), the “average colony size (an indication of growth rate)” value is “increase” and the “effect on the morphology class of colonies obtained” value was “virtually no effect”.
With `NCCO` [ethanolamine], the “general plating efficiency and number of undifferentiated ES colonies with or without the component” value in test [2] is “no different”.
Turning to ferric citrate, the “general plating efficiency and number of undifferentiated ES colonies with or without the component” value in test [2] was “no different”.
Still for that read-out and setting: as for glycl-histidyl-lysine, the entry is “no different”.
